Results from BigSolDB 2.1.

N#Cc1ccc2c(c1)OCO2
solubility (mole fraction)
Conditions	278.15 K	283.15 K	288.15 K	293.15 K	298.15 K	303.15 K	308.15 K	313.15 K	318.15 K	323.15 K
in 1,4-dioxane	–	–	0.174	0.197	0.221	0.256	0.283	0.325	0.358	0.406
in 2-methoxyethanol	0.0495	0.0606	0.0722	0.0849	0.101	0.119	0.137	0.16	0.192	0.221
in DMF	0.172	0.193	0.212	0.239	0.264	0.293	0.32	0.36	0.39	0.433
in acetone	0.101	0.118	0.136	0.158	0.181	0.207	0.237	0.269	0.307	0.349
in acetonitrile	0.0673	0.0811	0.0999	0.12	0.143	0.173	0.203	0.243	0.283	0.33
in ethanol	0.00686	0.00878	0.0111	0.0133	0.0166	0.0214	0.0266	0.034	0.0435	0.0548
in ethyl acetate	0.0892	0.102	0.118	0.14	0.166	0.187	0.217	0.247	0.282	0.322
in isopropanol	0.00473	0.00606	0.00772	0.00933	0.0127	0.0168	0.0202	0.0268	0.0338	0.0445
in isopropyl acetate	0.0657	0.0784	0.0948	0.112	0.13	0.155	0.179	0.211	0.243	0.277
in methanol	0.00823	0.0104	0.0123	0.0157	0.0192	0.024	0.031	0.0387	0.0495	0.0617
in methyl acetate	0.102	0.118	0.137	0.16	0.184	0.21	0.24	0.274	0.31	0.353
in n-propanol	0.00603	0.00758	0.00949	0.0122	0.0159	0.02	0.0255	0.0329	0.0433	0.0573
in n-propyl acetate	0.0785	0.0928	0.113	0.128	0.149	0.176	0.204	0.235	0.27	0.31
